Test system: mouse TTR gene
Test: In vivo editing in mouse liver, LNP with Cas9 mRNA and sgRNA G502, NGS
Conditions: G502, sgRNA:Cas9 mRNA 1:2 w/w, Example 119
Method: CD-1 female mice, ranging from 6-10 weeks of age were used in each study. Animals were weighed and grouped according to body weight for preparing dosing solutions based on group average weight. LNPs were dosed via the lateral tail vein in a volume of 0.2 mL per animal (approximately 10 mL per kilogram body weight). The animals were periodically observed for adverse effects for at least 24 hours post dose.
For studies measuring in vivo editing in liver, CD-1 female mice were dosed at 0.1 mpk unless otherwise noted. Animals were euthanized at 6 or 7 days by exsanguinationvia cardiac puncture under isoflourane anesthesia. Liver tissue was collected from each animal for DNA extraction and analysis. Blood was collected into serum separator tubes or into tubes containing buffered sodium citrate for plasma as described herein. Cohorts of mice were measured for editing by Next-Generation Sequencing (NGS).
In brief, to quantitatively determine the efficiency of editing at the target location in the genome, genomic DNA was isolated and deep sequencing was utilized to identify the presence of insertions and deletions introduced by gene editing.
PCR primers were designed around the target site (e.g., B2M), and the genomic area of interest was amplified. […] The reads were aligned to the relevant reference genome (e.g., GRCm38) after eliminating those having low quality scores. The resulting files containing the reads were mapped to the reference genome (BAM files), where reads that overlapped the target region of interest were selected and the number of wild type reads versus the number of reads which contain an insertion, substitution, or deletion was calculated.
The editing percentage (e.g., the “editing efficiency” or “percent editing”) is defined as the total number of sequence reads with insertions or deletions over the total number of sequence reads, including wild type.
We assessed in vivo editing efficiency for materials delivered with formulations with variable tail lengths through in vivo editing experiments. […]

| SMILES | efficacy for in vivo editing (in words) |
| --- | --- |
| CCCCC/C=C\C/C=C\CCCCCCCC(=O)OCC(COC(=O)CCCCCCC/C=C\C/C=C\CCCCC)OC(=O)CCC(CCCCCC)OC(=O)NCCN1CCCC1 (racemic) [Compound 50, 2-((4-(((2-(pyrrolidin-1-yl)ethyl)carbamoyl)oxy)decanoyl)oxy)propane-1,3-diyl (9Z,9′Z,12Z,12′Z)-bis(octadeca-9,12-dienoate)] | efficacious |
| CCCCC/C=C\C/C=C\CCCCCCCC(=O)OCC(COC(=O)CCCCCCC/C=C\C/C=C\CCCCC)OC(=O)CCC(CCCCCCCC)OC(=O)NCCN1CCCC1 (stereo not drawn) [Compound 51, 2-((4-(((2-(pyrrolidin-1-yl)ethyl)carbamoyl)oxy)dodecanoyl)oxy)propane-1,3-diyl (9Z,9′Z,12Z,12′Z)-bis(octadeca-9,12-dienoate)] | efficacious |
| CCCCC/C=C\C/C=C\CCCCCCCC(=O)OCC(COC(=O)CCCCCCC/C=C\C/C=C\CCCCC)OC(=O)CCC(CCCCC)OC(=O)NCCN1CCCC1 (stereo not drawn) [Compound 72, 2-((4-(((2-(pyrrolidin-1l-yl)ethyl)carbamoyl)oxy)nonanoyl)oxy)propane-1,3-diyl (9Z,9′Z,12Z,12′Z)-bis(octadeca-9,12-dienoate)] | efficacious |

Test system: not listed separately
Test: Tolerability in rats: liver enzyme panel 24 hours post dose
Type: in vivo, rat
Conditions: Sprague Dawley female rats, 6 mg/kg, serum
Method: For efficacy, Sprague Dawley female rats were dosed i.v. at 0.1 mpk or 0.03 mpk. 6-7 days post dose, rats were euthanized by CO2 asphyxiation. Blood was collected into serum separator tubes. Liver biopsy processed for gDNA and assessed for editing by NGS methods described in Example 115. Results are shown in Table 11 and FIGS. 12A and 12B. For tolerability, Sprague Dawley female rats were dosed at 6 mpk and 24 hours post dose the animals were euthanized by CO2 asphyxiation. Blood was collected into serum separator tubes and sent to an external CRO for quantitation of liver enzymes via a liver enzyme panel.

| SMILES | ALP (U/L) | ALT (U/L) | AST (U/L) | Creatine kinase (U/L) | GGT (U/L) | Total Bilirubin |
| --- | --- | --- | --- | --- | --- | --- |
| CCCCC/C=C\C/C=C\CCCCCCCC(=O)OCC(COC(=O)CCCCCCC/C=C\C/C=C\CCCCC)OC(=O)CCC(CCCCCC)OC(=O)NCCN1CCCC1 (racemic) [Compound 50, 2-((4-(((2-(pyrrolidin-1-yl)ethyl)carbamoyl)oxy)decanoyl)oxy)propane-1,3-diyl (9Z,9′Z,12Z,12′Z)-bis(octadeca-9,12-dienoate)] | 508.6 U/L | 250.8 U/L | 820.8 U/L | 272 U/L | 11 U/L | 0.4 mg/dL |
| CCCCC/C=C\C/C=C\CCCCCCCC(=O)OCC(COC(=O)CCCCCCC/C=C\C/C=C\CCCCC)OC(=O)CCC(CCCCCCCC)OC(=O)NCCN(C)CC (stereo not drawn) [Compound 34, 2-((4-(((2-(ethyl(methyl)amino)ethyl)carbamoyl)oxy)dodecanoyl)oxy)propane-1,3-diyl (9Z,9′Z,12Z,12′Z)-bis(octadeca-9,12-dienoate)] | 542 U/L | 179.6 U/L | 349.6 U/L | 184.8 U/L | 3.4 U/L | 0.2 mg/dL |
| CCCCC/C=C\C/C=C\CCCCCCCC(=O)OCC(COC(=O)CCCCCCC/C=C\C/C=C\CCCCC)OC(=O)CCC(CCCCCC)OC(=O)OCCCN1CCCC1 (stereo not drawn) [Compound 45, 2-((4-(((3-(pyrrolidin-1-yl)propoxy)carbonyl)oxy)decanoyl)oxy)propane-1,3-diyl (9Z,9′Z,12Z,12′Z)-bis(octadeca-9,12-dienoate)] | 439.8 U/L | 163.2 U/L | 681 U/L | 1103 U/L | 2.4 U/L | 0.3 mg/dL |
| CCCCC/C=C\C/C=C\CCCCCCCC(=O)OCC(COC(=O)CCC(OCCCCCCCC)OCCCCCCCC)COC(=O)OCCCN(CC)CC (stereo not drawn) [Compound 49, 3-((4,4-bis(octyloxy)butanoyl)oxy)-2-((((3-(diethylamino)propoxy)carbonyl)oxy)methyl)propyl (9Z,12Z)-octadeca-9,12-dienoate, reference compound] | 784.3 U/L | 408.5 U/L | 534.8 U/L | 157.5 U/L | 2 U/L | 0.6 mg/dL |
